Test results as given in patent US20150209315A1 (Cumberland Pharmaceuticals, priority 2009, published 2015).

What was measured:
[1] = tested on: post-operative adult patients; assay: Example 1: treatment failures; format: in vivo, human; settings: ITT
Method: Eligible patients were randomized to one of the three treatment groups. All patients were able (but were not required) to receive morphine until approximately 45 minutes before the end of the surgical procedure. After that time, only fentanyl was allowed until the end of the operation. The first dose of ibuprofen was administered at approximately the initiation of skin closure. […] Other than ibuprofen or placebo, only morphine was administered for pain. […] Additional morphine could be administered at the discretion of the treating physician if adequate pain control had still not been achieved. Patients given non-morphine analgesics were classified as treatment failures. Treatment failures were not replaced. A treatment failure was defined as a patient that required narcotic pain medication, other than morphine, or non-narcotic medications including the use of another NSAID through the treatment period. If other narcotics (other than morphine) or NSAIDS were started, ibuprofen/placebo was discontinued. In the ITT population, there was a numerical trend but not a statistically significant difference for fewer treatment failures in the ibuprofen groups compared to the placebo group: […]

[2] = tested on: post-operative adult patients; assay: Example 1: time to GI motility, ambulation, liquid/solid intake, length of hospital stay; format: in vivo, human; settings: for Time to GI motility: value + SD
[3] = cited from earlier work
[4] = tested on: post-operative adult patients; assay: Example 2: adverse events; format: in vivo, human; settings: 800 mg
Method: Patients were evaluated and compared for morphine requirements between the active doses and placebo using analysis of variance and covariance procedures at an overall alpha level of 0.05. Secondary efficacy parameters were also evaluated and compared among the treatment groups using appropriate statistical methods described in the statistical analysis section of the protocol. Safety information was compared between the treatment groups using Chi-Square or Cochran-Mantel-Haenszel test. Demographic, background and baseline information among the treatment groups was also described.

SMILES: CC(C)Cc1ccc(C(C)C(=O)O)cc1 (centres unmarked) [Ibuprofen, 2-(4-isobutylphenyl) propionic acid]
- treatment failures, number of patients ([1]; 400 mg): 7
- treatment failures, percent of patients ([1]; 400 mg): 5%
- treatment failures, number of patients ([1]; 800 mg): 4
- treatment failures, percent of patients ([1]; 800 mg): 3%
- Time to GI motility ([2]; 400 mg, EEP): 20.2+1.30 hours
- Time to GI motility ([2]; 400 mg, ITT): 20.1+1.28 hours
- Time to GI motility ([2]; 800 mg, EEP): 21.2+1.63 hours
- Time to GI motility ([2]; 800 mg, ITT): 21.6+1.50 hours
- time to liquid intake vs placebo ([2]; ibuprofen treated group, ITT): not found to be statistically significant
- time to solid intake vs placebo ([2]; ibuprofen treated group, ITT): not found to be statistically significant
- Time to ambulation vs placebo ([2]; ibuprofen treated groups, ITT): found not to be statistically significant faster
- Length of hospital stay vs placebo ([2]; treated groups, ITT): not found to be statistically significant
- solubility in water [3]: very poorly soluble in water
- patients experiencing adverse events or serious adverse events vs placebo [4]: no significant differences in the number of patients experiencing adverse events or serious adverse events between groups
